Measured values taken from patent publication US20220186188A1, “Method for Obtaining Pancreatic Progenitor Cells and Pancreatic Islet Beta Cells By Means of Differentiation of Human Pluripotent Stem Cells” (Asia Regenerative Medicine, Ltd., priority 2019, published 2022).

Key:
[1] = test system: pancreatic progenitor cells differentiated from human induced pluripotent stem cells; assay: Flow cytometry detection of PDX1 in the pancreatic progenitor cell stage (human induced pluripotent stem cells); format: cell-based; conditions: 2 μM inhibitor in pancreatic progenitor cell medium, 5 days, compared with control group without WNT inhibitor
Description: (§1) a pancreatic progenitor cell medium was prepared, the medium in step 1) was replaced with the pancreatic progenitor cell medium, and the cells were cultured in a carbon dioxide incubator at 37 degrees Celsius for 5 days, during which the medium was replaced every day, wherein the composition of the pancreatic progenitor cell medium was: with an MCDB131 medium as a basic medium, and the following components at the working concentrations were further included: 0.5% of bovine serum albumin (BSA), 1.5 g/L of sodium bicarbonate, 1×glutamine (GlutaMAX), 10 mM glucose, […] vitamin C, 1×insulin-transferrin-selenium-ethanolamine additive (ITS-X), 50 ng/ml of fibroblast growth factor (KGF), 0.5 μM SANT1 (with smo as an inhibitor target), 100 nM retinoic acid (TTNPB), 500 nM phorbol 12,13-dibutyrate (PDBu), 2 μM ALK inhibitor (K02288), and 2 μM WNT signaling pathway inhibitor XAV-939 (not added in a control group), with the concentrations all being final concentrations. […]

[2] = test system: pancreatic progenitor cells differentiated from human embryonic stem cells; assay: Flow cytometry detection of PDX1 in the pancreatic progenitor cell stage (human embryonic stem cells); format: cell-based; conditions: 2 μM inhibitor in pancreatic progenitor cell medium, 5 days, compared with control group without WNT inhibitor
Description: as §1, with “factor 7” for “factor”

Oc1nc(-c2ccc(C(F)(F)F)cc2)nc2c1CSCC2 [XAV-939]
PDX1-positive pancreatic progenitor cells (flow cytometry) [1]: significantly increased | PDX1-positive pancreatic progenitor cells (flow cytometry) [2]: significantly increased
